The values below come from USRE30731E, “Enkephalin analogues” (priority 1977, dated 1981).

One experiment has as its system mouse vas deferens. The experiment in a line: mouse vas deferens (M.V.D.) assay. Format: cell-based. Conditions: Met Enkephalin = 100%. From the text: (II)M.V.D. stands for mouse vas deferens
Kosterhtz, H. W. & Leslie. F. M. Br. J. Pharmac. 53, 371, 381,

The next experiment concerns rats. The experiment in a line: tail flick assay, intraventricular administration. The experiment is classed as in vivo, rat. Conditions: administered intraventricularly to rats. An excerpt: Also, we have indications of in vivo analgesic effects of the analogues.
(In hot-plate and tail-flick tests a longer latency is read as antinociception.)

The next experiment concerns rat brain membranes. Kind of experiment: radio receptor assay (R.R.A.): displacement of tritiated naloxone from rat brain membranes. The experiment is classed as binding. As to conditions: based on concentration displacing 50% of (3H)naloxone (1 nM) from rat brain membranes; 0.1 M NaCl/50 mM Tris pH 7.4; 15 minutes; bacitracin. As for the experimental part: (III)R.R.A. stands for radio receptor assay; based on the concentration
required to displace 50% of tritiated naloxone from rat brain membranes.
The displacements .[.replacements.]. were carried out against (^3
H)naloxane (lnM) in 0.1 M sodium chloride/50mM Tris buffer at pH 7.4;
incubations were for 15 minutes in the .Iadd.presence
.Iaddend..[.absence.]. of bacitracin. For general reference to the method
see literature as discussed in "Opiate Receptor Mechanisms". S. H. Snyder
and S. Matthysse eds, MIT Press, 1975.

As to “5-Amino-6-(4'-hdyroxyphenyl)-hexanoyl-glycyl-L-phenylalanyl-L-methionine a mide [Analogue H211]”, in the experiment on mouse vas deferens, the “Activity Relative to Met Enkephalin, M.V.D.” value is on record as 0.9%. Moreover, the “analgesia (tail flick assay)” value in the experiment on rats was “analgesia lasting for several minutes”. Besides, the “Activity Relative to Met Enkephalin, R.R.A.” value in the experiment with rat brain membranes worked out at 8%.
